Experimental data reported in patent US5187157A, “Peptide boronic acid inhibitors of trypsin-like proteases” (Du Pont Merck Pharmaceutical Company, priority 1988, dated 1993).
Residues, ends and D or L forms follow the SMILES beside them. *: point of attachment. X1 = CC1(C)C2CC3OB(C(CCCNC(=N)N)N*)OC3(C)C1C2; Boc = CC(C)(C)OC(=O)*

Legend:
[1] = system: normal human plasma; experiment: Prothrombin times (PT), blood coagulation in vitro; assay type: biochemical; conditions: for Calc. Concentration 2 × XPT: approximate concentration required to increase PT two fold
Method: (§1) The effectiveness of inhibitors in reactions in which they compete with natural substrates for target enzymes is measured in vitro in blood coagulation assays. Two different assays are used, the APTT (activated partial thromboplastin times) and PT (prothrombin times) assays. These assays mimic the blood clotting process in vivo. Blood coagulation occurs through either of two pathways, each consisting of a cascades of zymogen activation steps. The pathways are termed the intrinsic and the extrinsic pathways (see L. Lorand, Methods in Enzymology 45: 31-37 (1976). The intrinsic pathway is initiated by negatively charged surfaces in which plasma kallikrein, factor XII and factor […] are activated and then factors IX and X and prothrombin are activated in calcium dependent steps. Thrombin, the last protease in the cascade, hydrolyses fibrinogen to fibrin which results in clot formation. In the APTT assay, plasma components are activated by exposure to negatively charged surfaces and then clotting times are measured after calcium is added to the system. In the extrinsic pathway, tissue thromboplastin activates factor VII which then activates factor X leading to the activation of thrombin. These events are measured in the prothrombin times assay.
For PT assays, inhibitor solutions (0.100 mL) were incubated with normal human plasma (0.100 mL) for 2 min at 37°.

[2] = system: Sprague Dawley CD Rats; experiment: In Vivo Inhibition of Croton Oil Induced Inflammation (ear swelling); conditions: for Mean Swelling (mg ± SE): right minus left ear weight
Method: Two solutions were prepared, the first consisting of 5% croton oil, a known inflammatory agent, in an acetone carrier (Croton Solution) and the second consisting of 5% croton oil in an acetone carrier to which 10 mg/mL of a compound of the invention was added (Compound Solution). The Croton Solution (10 μL), or alternatively the Compound Solution (10 μL), was applied to the right ear of each animal (Sprague Dawley CD Rats, 130-140 g, supplied by Charles River Labs, Inc., Wilmington, MA). […] "SE" denotes standard error.

[3] = system: normal human plasma; experiment: Activated partial thromboplastin times (APTT), blood coagulation in vitro; assay type: biochemical; conditions: for Calc. Concentration 2 × APTT: approximate concentration required to increase APTT two fold
Method: as §1
The effect of protease inhibitors on blood coagulation in vitro was determined by measuring their effects on two different clinical parameters, the activated partial thromboplastin times (APTT) and prothrombin times (PT). Reagents for each of these assays were supplied by General Diagnostics, Jessup MD. Stock solutions of inhibitors were prepared in […] HEPES buffer, pH 7.5, containing 0.10 M sodium chloride. For the APTT assay, the inhibitor solution (0.100 mL) was incubated with normal human plasma (0.100 mL) and automated APTT reagent (0.100 mL). After incubation for 5.0 min at 37°, calcium chloride (0.100 mL) was added and the clotting times, measured in seconds, was determined on a fibrameter. The effects of the varying concentrations of inhibitor on blood clotting times compared with the clotting times of controls run in the absence of inhibitor, are shown in Table 3.

[4] = molecular target: T1, Human thrombin (Homo sapiens, UniProt P00734); experiment: Inhibition of Thrombin (Esterase Activity); assay type: biochemical; conditions: activity remaining 10 to 20 min after initiation
T1 construct: purchased R.Q.P. Laboratories, South Bend, IN Lot HT102
Method: (§2) In the Examples which follow, the hydrolytic activity of each enzyme is measured in both the presence and absence of inhibitor and the percent enzyme activity determined. […] A steady state is reached fairly rapidly and nears completion within 5 min. Activity is evaluated between 10-20 min after the components are mixed to insure that reaction components are at equilibrium. The lowest concentration of inhibitor tested is determined by the estimated concentration of enzyme. […] The maintenance of pseudo-first-order reaction conditions and the sensitivity of the respective assays sets the lowest limit level of inhibitor tested at 10 nM for kallikrein inhibitors and 5 nM for thrombin inhibitors.
A stock solution of thrombin was prepared in 0.010M PIPES Buffer, pH 6.0, containing 0.75 M sodium chloride. […] The initial concentration of substrate was 0.10 mM and the concentration of thrombin was 1.0 nM (based on weight).

[5] = molecular target: T2, Human plasma kallikrein (Homo sapiens, UniProt P03952); experiment: Inhibition of Human Plasma Kallikrein; assay type: biochemical; conditions: for Percent Activity: activity remaining 10 to 20 min after initiation
T2 construct: purchased Protogen AG (Switzerland)
T2 sequence (P03952 391-638 limits assumed): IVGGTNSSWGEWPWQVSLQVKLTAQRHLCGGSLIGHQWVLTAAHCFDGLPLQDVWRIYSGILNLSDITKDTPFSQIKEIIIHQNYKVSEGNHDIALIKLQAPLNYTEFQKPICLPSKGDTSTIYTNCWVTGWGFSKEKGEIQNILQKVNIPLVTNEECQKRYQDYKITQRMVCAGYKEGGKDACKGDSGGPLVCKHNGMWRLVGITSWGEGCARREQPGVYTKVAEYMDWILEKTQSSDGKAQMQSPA
T2 sequence (P03952 20-390 partner limits assumed): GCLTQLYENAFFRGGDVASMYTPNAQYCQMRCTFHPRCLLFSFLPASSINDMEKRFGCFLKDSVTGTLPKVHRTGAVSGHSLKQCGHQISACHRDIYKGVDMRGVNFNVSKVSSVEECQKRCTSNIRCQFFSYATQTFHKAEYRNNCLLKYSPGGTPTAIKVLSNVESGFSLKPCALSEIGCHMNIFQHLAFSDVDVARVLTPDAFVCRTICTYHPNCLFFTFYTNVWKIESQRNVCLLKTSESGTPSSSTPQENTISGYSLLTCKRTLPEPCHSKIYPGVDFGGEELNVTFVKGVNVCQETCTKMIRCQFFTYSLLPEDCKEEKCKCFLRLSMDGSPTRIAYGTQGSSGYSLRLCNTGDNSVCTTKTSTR
Method: as §2
Human plasma kallikrein was obtained from Protogen AG (Switzerland). The specific activity as described by the supplier is 15 units per mg. A unit is defined as the quantity of enzyme required to hydrolyze 1 μmole of substrate, H-(D)Pro-Phe-Arg-p-nitroanilide (Kabi S2302), per min at a substrate concentration of 0.50 mM at 25° in 50 mM potassium phosphate buffer, pH 8.0.

[6] = Stability of Inhibitors in Human Plasma As Measured By APTT; assay type: in vitro ADME; conditions: 250 nM in APTT assay
Method: The stability of inhibitors in plasma was determined by their ability to inhibit blood coagulation. First, a stock solutions (1.0 μM) of the inhibitors to be tested in 25 mM HEPES buffer, pH 7.5, containing 0.10 M sodium chloride were diluted 50% with normal human plasma. The mixtures were made at 0°, then aliquots (0.200 mL) were removed and incubated for 2 min at 37°. An equal volume of automated APTT reagent was added and clotting times were measured as described in Examples 111-117. The final concentration of inhibitor during the clotting assays was 250 nM. Values for compounds E and F were determined simultaneously with the Control. Values for compounds A, B and C were obtained on a different day.

[7] = Table 14, dose=100 μg, essentially the same conditions
[8] = 100 μg/ear with 5% croton oil, topical, 1 h
[9] = Table 13, 100 μg/ear with 5% croton oil, topical, 1 h
[10] = incubation in human plasma 0.5 h
[11] = incubation in human plasma 24 h
[12] = incubation in human plasma 48 h

| Compound | Calc. Concentration 2 × XPT [1] [nM] | Prothrombin Times ([1]; inhibitor 1000 nM) [s] | Prothrombin Times ([1]; inhibitor 2000 nM) [s] | Calc. Concentration 2 × APTT [3] [nM] | Activated Partial Thromboplastin Times ([3]; inhibitor 50 nM) [s] | Activated Partial Thromboplastin Times ([3]; inhibitor 125 nM) [s] | Activated Partial Thromboplastin Times ([3]; inhibitor 200 nM) [s] | Activated Partial Thromboplastin Times ([3]; inhibitor 275 nM) [s] | Activated Partial Thromboplastin Times ([3]; inhibitor 350 nM) [s] | Activated Partial Thromboplastin Times ([3]; inhibitor 550 nM) [s] | Percent Activity ([5]; inhibitor 10 nM) [%] | Percent Activity ([4]; inhibitor 1000 nM) [%] | other results |
| --- | --- | --- | --- | --- | --- | --- | --- | --- | --- | --- | --- | --- | --- |
| Br.CC(C)(C)OC(=O)NC(Cc1ccccc1)C(=O)NC(Cc1ccccc1)C(=O)NC(CCCSC(=N)N)B1OC2CC3CC(C3(C)C)C2(C)O1 (stereo not drawn) [Compound D, Boc-(D)Phe-Phe-boroIrg-C10 H16.HBr] | 1200 | 19.9 | 23.4 | 370 | 35.8 | 45.2 | 46.2 | 60.7 | 75.7 | 94.8 | 2 |  | Prothrombin Times ([1]; inhibitor 500 nM): 15.7 s; Prothrombin Times ([1]; inhibitor 750 nM): 17.2 s; Prothrombin Times ([1]; inhibitor 4000 nM): 49.2 s; Percent Inhibition [2, 7]: 93%; Percent Activity ([4]; inhibitor 5 nM): 48% |
| COc1ccc2c(c1)c(CC(=O)O)c(C)n2C(=O)c1ccc(Cl)cc1 [Indomethacin, indomethacin, reference compound] |  |  |  |  |  |  |  |  |  |  |  |  | Mean Right ear Wt. [2, 8]: 20.6 mg; Mean Swelling (mg ± SE) [2, 8]: 5.0 ± 2.8 mg; Percent Inhibition [2, 9]: 55% |
| CC(=O)NC(Cc1ccccc1)C(=O)NC(CCCNC(=N)N)B1OC2CC3CC(C3(C)C)C2(C)O1.Cl (stereo not drawn) [Compound F, Ac-Phe-boroArg-C10 H16.HCl] | 2500 | 16.2 | 20.8 | 325 | 35 | 35.2 | 36.7 | 44.8 | 58.2 | 144.2 | 48 | 53 | Prothrombin Times ([1]; inhibitor 4000 nM): 51.5 s; Mean Right ear Wt. [2, 8]: 18.9 mg; Mean Swelling (mg ± SE) [2, 8]: 2.3 ± 0.7 mg; Percent Inhibition [2, 9]: 79%; Clotting Time ([6]; incubation in human plasma 0 h): 76.3 s; Clotting Time [6, 10]: 76.4 s; Clotting Time ([6]; incubation in human plasma 1 h): 76.7 s; Clotting Time ([6]; incubation in human plasma 2 h): 79.6 s; Clotting Time ([6]; incubation in human plasma 3 h): 77.8 s; Clotting Time ([6]; incubation in human plasma 4 h): 81.8 s; Clotting Time ([6]; incubation in human plasma 5 h): 80.8 s; Clotting Time ([6]; incubation in human plasma 6 h): 79.3 s; Clotting Time [6, 11]: 73.9 s; Clotting Time [6, 12]: 49.3 s |
| CC(C)(C)OC(=O)N[C@H](Cc1ccccc1)C(=O)N[C@@H](Cc1ccccc1)C(=O)N[C@@H](CCCNC(=N)N)B1OC2CC3CC(C3(C)C)C2(C)O1.O=S(=O)(O)c1ccccc1 (stereo partly drawn) [E, Boc-(D)Phe-Phe-boroArg-C10 H16.benzene sulfonic acid] | 2600 | 29.3 | 39 | 375 | 36.8 | 40.5 | 43.6 | 52.8 | 54.8 | 61.3 | 5.2 |  | Prothrombin Times ([1]; inhibitor 500 nM): 19.8 s; Prothrombin Times ([1]; inhibitor 750 nM): 22 s; Prothrombin Times ([1]; inhibitor 4000 nM): 70.8 s; Percent Inhibition [2, 7]: 82%; Clotting Time ([6]; incubation in human plasma 0 h): 63.2 s; Clotting Time [6, 10]: 73.2 s; Clotting Time ([6]; incubation in human plasma 1 h): 66.2 s; Clotting Time ([6]; incubation in human plasma 2 h): 67.7 s; Clotting Time ([6]; incubation in human plasma 3 h): 61.7 s; Clotting Time ([6]; incubation in human plasma 4 h): 58.2 s; Clotting Time ([6]; incubation in human plasma 5 h): 61.3 s; Clotting Time ([6]; incubation in human plasma 6 h): 57.3 s; Clotting Time [6, 11]: 64.7 s; Clotting Time [6, 12]: 58.7 s; Percent Activity ([4]; inhibitor 10 nM): 32% |
| CC(=O)NC(C)C(=O)NC(CCCCN)C(=O)NC(CCCNC(=N)N)B1OC2CC3CC(C3(C)C)C2(C)O1.Cl.Cl (stereo not drawn) [Ac--Ala--Lys--boroArg--C10 H16.2HCl, Ac-Ala-Lys-boroArg-C10 H16.2HCl] |  |  |  |  |  |  |  |  |  |  |  | 45 | Percent Activity ([5]; inhibitor 50 nM): 39% |
| Br.CC(NC(=O)OC(C)(C)C)C(=O)NC(Cc1ccccc1)C(=O)NC(CCCCSC(=N)N)B1OC(C)(C)C(C)(C)O1 (stereo not drawn) [Boc-Ala-Phe-(D,L)boroHomoIrg-C6 H12.HBr] |  |  |  |  |  |  |  |  |  |  |  |  | Percent Activity ([4]; inhibitor 10000 nM): 32%; Percent Activity ([5]; inhibitor 100 nM): 38% |
| Bz-Pro-Phe-boroArg-F.hydrogen chloride [Bz--Pro--Phe--boroArg--F] |  |  |  |  |  |  |  |  |  |  | 18 | 18 |  |
| Br.CC(=O)NC(Cc1ccccc1)C(=O)NC(CCCSC(=N)N)B1OC2CC3CC(C3(C)C)C2(C)O1 (stereo not drawn) [G, Ac-Phe-boroIrg-C10 H16.HBr] | 1200 | 19.7 | 43.6 | 625 | 35.2 | 36.2 | 39.3 | 58.2 | 66.7 | 98.4 |  | 64 | Prothrombin Times ([1]; inhibitor 500 nM): 13.7 s; Prothrombin Times ([1]; inhibitor 750 nM): 14.9 s; Percent Inhibition [2, 7]: 69%; Percent Activity ([5]; inhibitor 50 nM): 17% |
| Ac-Ala-Lys(Boc)-boroArg-C10 H16.benzene sulfonic acid [Ac--Ala--Lys(Boc)--boroArg--C10 H16.BSA] |  |  |  |  |  |  |  |  |  |  | 34 |  | Percent Activity ([4]; inhibitor 100 nM): 18% |
| CC1(C)C2CC3OB(C(CCCNC(=N)N)NC(=O)C(Cc4ccccc4)NC(=O)C(N)Cc4ccccc4)OC3(C)C1C2.Cl.Cl (stereo not drawn) [H--(D)Phe--Phe--boroArg--C10 H16.2HCl, H-(D)Phe-Phe-boroArg-C10 H16.2HCl] |  |  |  |  |  |  |  |  |  |  | 2.6 |  | Percent Activity ([4]; inhibitor 10 nM): 10%; inhibits kallikrein ([5]; inhibitor 10 nM): greater than 95% |
| CC(C)CC(NC(=O)CNC(=O)C(CC(C)C)NC(=O)OC(C)(C)C)C(=O)NC(C)C(=O)NC(CCCNC(=N)N)B1OC2CC3CC(C3(C)C)C2(C)O1.O=S(=O)(O)c1ccccc1 (stereo not drawn) [Boc-Leu-Gly-Leu-Ala-boroArg-C10 H16.benzene sulfonic acid] (Boc-LGLA-X1; configuration not given here) |  |  |  |  |  |  |  |  |  |  | 30 |  | Percent Activity ([4]; inhibitor 10 nM): 38% |
